These are literature values, as cited in US4886800A, “Substituted cinnoline derivatives as CNS depressants” (ICI Americas Inc., priority 1985, dated 1989).

In this data set the test system is specific [3H]flunitrazepam binding, lysed mitochondrial-synaptosomal (P2) fraction of cerebral cortex. As to conditions: reference behaviour stated in the description of the test.

`CCCCNc1c(C(=O)OCC)cnc2c1cnn2CC` [cartazolate]: the “effect on flunitrazepam binding” value was “enchancement of the binding”.
In the case of `CCCCNc1c(C(=O)OCC)c(C)nc2c1cnn2CC` [tracazolate], the “effect on flunitrazepam binding” value is reported as “enchancement of the binding”.
